We go through two compounds from patent US20100168146A1, “Composition Comprising (R)-Spiro[L-Azabicyclo[2.2.2]Octane-3,2'(3'H)-Furo[2,3-B]Pyridine (AZD0328) and its Use in the Treatment of Alzheimer's Disease, ADHD or Cognitive Dysfunction” (priority 2008, published 2010).

Data set [1] relates to rats. In words: Nicotine drug discrimination. The following applies: rat, sc, training drug. Here is the method: AZD0328 was tested for its potential to produce nicotine-like stimulus effects after subcutaneous administration in a drug-discrimination procedure (Table 3).
A short description of data set [2]: Pharmacological activity of metabolite. The following applies: major metabolite. As for the experimental part: Pyridinyl methylation of AZD0328 was a unique polar metabolite (M2) observed in dog hepatocytes. Other minor hydroxylation/oxidation and glucuronide conjugation products were detected in monkey, dog, rat, and guinea pig hepatocyte incubations and mini-pig hepatic microsome incubations. […] Analysis of plasma and urine samples from either orally or iv dosed rats confirmed N-oxide product of AZD0328 was a main product in the excretion and circulation. The percentage of AZD0328 N-oxide in the plasma from male rats was much higher than from females.

Take `CN1CCCC1c1cccnc1` (centres unmarked) [nicotine, reference compound]: the Response rates result in data set [1] is on record as “not significantly affected”. With `[O-][N+]12CCC(CC1)C1(Cc3cccnc3O1)C2` (centres unmarked) [quinuclidinyl-N-oxide of AZD0328], in data set [2], the Pharmacological activity result was “pharmacological inactive”.
